Test results as given in patent US5955055A, “Synthetic peptides for arterial imaging at vascular imaging sites” (New England Deaconess Hospital Corporation, priority 1995, dated 1999).
Ends that are not written are not given here.

Test system: not listed separately
Test: Plasma decay of 125I-labelled synthetic peptide after injection into the marginal ear vein
Assay type: in vivo, rabbit
Conditions: at four hours
Method: Each labelled synthetic peptide preparation (containing, for example, 150 to 400 or more μCi of ^125 I-labelled peptide) in column elution buffer was injected into the marginal ear vein of the ballooned and healing New Zealand white rabbits or WHHL rabbits. Serial blood samples were obtained from the opposite ear during the ensuing 0-24 hours and were analyzed for radioactivity. The labelled peptide concentrations in the blood samples that were withdrawn over the first 10 minutes after injection were extrapolated to zero time to determine the time zero radioactivity in the calculation of average plasma radioactivity. […] Peptides SP15a, SP17, SP19a, SP21a, SP28, SP34a, and SP30 were cleared rapidly from the plasma with half-lives of about one minute or less; after one hour, the plasma levels were less than 10% of the injected dose and fell by an additional 1% over the next three hours. Peptides SP15a, SP17, SP21a, SP28, SP34a, and SP30 leveled off to a plasma level of 3-6%; peptide SP19a cleared more quickly and leveled off to a concentration of 0.3% (at four hours).
Control peptides used were SP-2 (part of the heparin and LDL receptor binding site of apolipoprotein E) and SP-11A which is a receptor and heparin binding domain of apolipoprotein B. To compare the relative accumulation of the ^125 I-labelled synthetic peptides in the aorta and adrenal gland, it was necessary to correct for differences in mean plasma concentration of the labelled compounds. The mean concentration of synthetic peptide-associated ^125 I radioactivity was calculated by numerical integration of the plasma decay curves and division by the time since injection of the isotope.
In the case of “Ac-YRALVDTLKFVTEQAKGA-NH2 [SP-19a, CH3 CONH-Tyr-Arg-Ala-Leu-Val-Asp-Thr-Leu-Lys-Phe-Val-Thr-Glu-Gln-Ala-Lys-Gly-Ala-CONH2]”, the “Plasma level at which the peptide leveled off” value (“Plasma level” below) is reported as 0.3%.
For “Ac-YAKFRETLEDTRDRMY-NH2 [SP-15a, CH3 CONH-Tyr-Ala-Lys-Phe-Arg-Glu-Thr-Leu-Glu-Asp-Thr-Arg-Asp-Arg-Met-Tyr-CONH2]”, the “Plasma level” value was 3-6%.
With “YVGVAPGVGVAPGVGVAPG [SP-28, H2 N-Tyr-Val-Gly-Val-Ala-Pro-Gly-val-Gly-Val-Ala-Pro-Gly-Val-Gly-Val-Ala-Pro- Gly-OH]” the “Plasma level” value was 3-6%.
For “Ac-YRALVDTEFKVKQEAGAK-NH2 [SP-21a, CH3 CONH-Tyr-Arg-Ala-Leu-Val-Asp-Thr-Glu-Phe-Lys-Val-Lys-Gln-Glu-Ala-Gly-Ala-Lys-CONH2]”, the “Plasma level” value was 3-6%.
With “YVPGVGVPGVGVPGVGVPGVG-NH2 [SP-30, H2 N-Tyr-Val-Pro-Gly-Val-Gly-Val-Pro-Gly-Val-Gly-Val-Pro-Gly-Val-Gly-Val-Pro- Gly-Val-Gly-CONH2]” the “Plasma level” value was 3-6%.
In the case of Ac-YVLDEFREKLNEELEALKQK-NH2 [SP-34a], the “Plasma level” value is reported as 3-6%.
In the case of “YAALDLNAVANKIADFEL-NH2 [SP-17, H2 N-Tyr-Ala-Ala-Leu-Asp-Leu-Asn-Ala-Val-Ala-Asn-Lys-Ile-Ala-Asp-Phe-Glu-Leu- CONH2]”, the “Plasma level” value is reported as 3-6%.

Test system: anti-SP-4 antiserum
Test: ELISA for immunological cross-reactivity with anti-SP-4 antiserum
Assay type: binding, rabbit
Conditions: ELISA plates coated with LDL or peptide, 100 ng per well
Method: To determine whether the molecular conformation or structure of the synthetic apoB peptides was analogous to the conformation of the apoB moiety of LDL, a polyclonal antiserum was raised to each peptide and its ability to bind LDL tested. Antiserum raised to human LDL was used as the control. To produce anti-synthetic peptide antisera, purified synthetic peptide was dissolved in PBS, pH 7.4 at a concentration of 1 mg/ml. The peptide solution was mixed with an equal volume of complete Freund's adjuvant and vortexed thoroughly until a thick emulsion was produced. New Zealand White rabbits (Millbrook Farms, Amherst, Mass.) were injected with a total of 0.5 mg synthetic peptide administered subcutaneously in the four dorsal quadrants. The rabbits were given a boost (injected at the same sites) with 0.5 mg peptide emulsified in incomplete Freund's adjuvant 2-3 weeks later. Eight to ten days after the first boost, the animals were given a second, identical boost and were bled of 30 ml 8 to 10 days later. To test for immunological cross-reactivity microtiter plates (Immulon II Dynatech Labs, Chantilly, Va.) were coated with the purified synthetic peptide or LDL by an overnight incubation at 4° C. with 100 ng peptide per well in 50 mM carbonate, pH 9.6, and blocked for nonspecific binding with an additional overnight incubation with phosphate-buffered saline, pH 7.4 (PBS), 1% bovine serum albumin (BSA). Control wells were coated with BSA alone. After washing twice with PBS, the wells were filled with serial dilutions (1:10 to 1:100,000 made in PBS, 3% BSA) of a rabbit polyclonal antibody generated against the synthetic peptide(s) and incubated for 45 minutes at room temperature. Following thorough washing (3× with PBS, 0.1% BSA), the wells were filled with a 1:2000 dilution of goat anti-rabbit IgG-horseradish peroxidase conjugate (Atlantic Antibodies, Scarborough, Me.). After a final wash, the wells were filled with 3,3'-5,5'-tetramethybenzidine (TMB) microwell peroxidase substrate (Kirkegaard and Perry Labs, Gaithersburg, Md.) and read at 650 nm every two minutes on an ELISA-5 automated plate reader (Physica, New York, N.Y.). Results (see, e.g., FIGS. 4 and 5) are expressed as the initial velocity of substrate conversion (change in OD650 /hr), which is determined by a linear regression of 15 data points per well. Each data point represents the average of three measured data points from the same plate, run at the same time.
In the case of “Ac-YRALVDTLK-NH2 [SP-14A, CH3 CONH-Tyr-Arg-Ala-Leu-Val-Asp-Thr-Leu-Lys-CONH2]”, the “Binding of anti-SP-4 antiserum to coated antigen” value (from here on “Binding of anti-SP-4 antiserum”) is reported as “shown to bind”.
With “YRALVDTLKFVTQAEGAK-NH2 [SP-4, NH2 -Tyr-Arg-Ala-Leu-Val-Asp-Thr-Leu-LYs-Phe-Val-Thr-Gln-Ala-Glu-Gly-Ala-Lys-CONH2]” the “Binding of anti-SP-4 antiserum” value was “shown to bind”.
In the case of “Ac-YKLALEAARLLANAEGAK-NH2 [SP-8A, CH3 CONH-Tyr-Lys-Leu-Ala-Leu-Glu-Ala-Ala-Arg-Leu-Leu-Ala-Asn-Ala-Glu-Gly-Ala-Lys-CONH2]”, the “Binding of anti-SP-4 antiserum” value is reported as “shown to bind”.
For “YKLALEAARLLANAEGAK-NH2 [SP-8, H2 N-Tyr-Lys-Leu-Ala-Leu-Glu-Ala-Ala-Arq-Leu-Leu-Ala-Asn-Ala-Glu-Gly-Ala-Lys- CONH2]”, the “Binding of anti-SP-4 antiserum” value was “shown to bind”.
With “YKLALEAARLLADAEGAK-NH2 [SP-6, H2 N-Tyr-Lys-Leu-Ala-Leu-Glu-Ala-Ala-Arg-Leu-Leu-Ala-Asp-Ala-Glu-Gly-Ala-Lys- CONH2]” the “Binding of anti-SP-4 antiserum” value was “shown to bind”.
With “Ac-YRALVDTLKFVTQAEGAK-NH2 [SP-4A, CH3 CONH-Tyr-Arg-Ala-Leu-Val-Asp-Thr-Leu-Lys-Phe-Val-Thr-Gln-Ala-Glu-Gly-Ala-Lys-CONH2]” the “Binding of anti-SP-4 antiserum” value was “shown to bind”.
In the case of “Ac-YKLALEAARLLADAEGAK-NH2 [SP-6A, CH3 CONH-Tyr-Lys-Leu-Ala-Leu-Glu-Ala-Ala-Arg-Leu-Leu-Ala-Asp-Ala-Glu-Gly-Ala-Lys-CONH2]”, the “Binding of anti-SP-4 antiserum” value is reported as “shown to bind”.
In the case of “Ac-YRALVDYLKFVTQL-NH2 [SP-12A, CH3 CONH-Tyr-Arg-Ala-Leu-Val-Asp-Tyr-Leu-Lys-Phe-Val-Thr-Gln-Leu-CONH2]”, the “Binding of anti-SP-4 antiserum” value is reported as “shown to bind”.
